Data: PubChem BioAssay (NCI)
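Values below derive from 48-hour exposures of cells grown in 96-well plates, with endpoints linearly interpolated between the two concentrations bracketing the appropriate inhibition level. TGI denotes the concentration required for complete inhibition of growth.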

Tests used:
Experiment in all cases: growth of human tumour cells (NCI), 48 h
TK-10 renal = system: TK-10 renal
T-47D breast = system: T-47D breast
NCI-H226 lung = system: NCI-H226 lung
BT-549 breast = system: BT-549 breast
CCRF-CEM leukemia = system: CCRF-CEM leukemia
OVCAR-4 ovarian = system: OVCAR-4 ovarian
HOP-62 NSCLC = system: HOP-62 NSCLC
A498 renal = system: A498 renal
ACHN renal = system: ACHN renal
OVCAR-8 ovarian = system: OVCAR-8 ovarian
SF-539 CNS = system: SF-539 CNS
HL-60(TB) leukemia = system: HL-60(TB) leukemia
K-562 leukemia = system: K-562 leukemia
MDA-MB-435 = system: MDA-MB-435
SNB-19 CNS = system: SNB-19 CNS
OVCAR-5 ovarian = system: OVCAR-5 ovarian
COLO 205 colon = system: COLO 205 colon
NCI-H460 lung = system: NCI-H460 lung
MDA-N = system: MDA-N
CAKI-1 renal = system: CAKI-1 renal
U251 CNS = system: U251 CNS
SW-620 colon = system: SW-620 colon
SNB-75 CNS = system: SNB-75 CNS
UACC-257 melanoma = system: UACC-257 melanoma
HCT-15 colon = system: HCT-15 colon
EKVX NSCLC = system: EKVX NSCLC
HS 578T breast = system: HS 578T breast
RXF 393 renal = system: RXF 393 renal
KM12 colon = system: KM12 colon
NCI-H522 lung = system: NCI-H522 lung
SF-295 CNS = system: SF-295 CNS
SK-OV-3 ovarian = system: SK-OV-3 ovarian
HOP-92 NSCLC = system: HOP-92 NSCLC
NCI/ADR-RES ovarian = system: NCI/ADR-RES ovarian
SR leukemia = system: SR leukemia
SF-268 CNS = system: SF-268 CNS
NCI-H23 lung = system: NCI-H23 lung
786-0 renal = system: 786-0 renal
DU-145 prostate = system: DU-145 prostate
SK-MEL-2 melanoma = system: SK-MEL-2 melanoma
UO-31 renal = system: UO-31 renal
HT29 colon = system: HT29 colon
LOX IMVI melanoma = system: LOX IMVI melanoma
PC-3 prostate = system: PC-3 prostate
A549 NSCLC = system: A549 NSCLC
MOLT-4 leukemia = system: MOLT-4 leukemia
RPMI-8226 leukemia = system: RPMI-8226 leukemia
MDA-MB-231 breast = system: MDA-MB-231 breast
OVCAR-3 ovarian = system: OVCAR-3 ovarian
M14 melanoma = system: M14 melanoma
SK-MEL-28 melanoma = system: SK-MEL-28 melanoma
HCT-116 colon = system: HCT-116 colon
MCF7 breast = system: MCF7 breast
IGROV1 ovarian = system: IGROV1 ovarian
SK-MEL-5 melanoma = system: SK-MEL-5 melanoma
SN12C renal = system: SN12C renal
MALME-3M melanoma = system: MALME-3M melanoma
UACC-62 melanoma = system: UACC-62 melanoma

N#CC(C#N)N=Nc1ccc(-c2nc3ccccc3[nH]2)cc1
TGI (TK-10 renal): 73.4 µM
TGI (T-47D breast): 55.7 µM
TGI (NCI-H226 lung): > 100 µM
TGI (BT-549 breast): 36.3 µM
TGI (CCRF-CEM leukemia): 36.8 µM
TGI (OVCAR-4 ovarian): 68.9 µM
TGI (HOP-62 NSCLC): > 100 µM
TGI (A498 renal): > 100 µM
TGI (ACHN renal): 29 µM
TGI (OVCAR-8 ovarian): 47.7 µM
TGI (SF-539 CNS): 35.5 µM
TGI (HL-60(TB) leukemia): 1.38 µM
TGI (K-562 leukemia): > 100 µM
TGI (MDA-MB-435): 40 µM
TGI (SNB-19 CNS): > 100 µM
TGI (OVCAR-5 ovarian): > 100 µM
TGI (COLO 205 colon): 21.8 µM
TGI (NCI-H460 lung): > 100 µM
TGI (MDA-N): 50.6 µM
TGI (CAKI-1 renal): 82.6 µM
TGI (U251 CNS): > 100 µM
TGI (SW-620 colon): 46.9 µM
TGI (SNB-75 CNS): > 100 µM
TGI (UACC-257 melanoma): 40.9 µM
TGI (HCT-15 colon): 58.7 µM
TGI (EKVX NSCLC): > 100 µM
TGI (HS 578T breast): > 100 µM
TGI (RXF 393 renal): 34.8 µM
TGI (KM12 colon): > 100 µM
TGI (NCI-H522 lung): 22.9 µM
TGI (SF-295 CNS): > 100 µM
TGI (SK-OV-3 ovarian): > 100 µM
TGI (HOP-92 NSCLC): 49.6 µM
TGI (NCI/ADR-RES ovarian): 43.2 µM
TGI (SR leukemia): > 100 µM
TGI (SF-268 CNS): 66.4 µM
TGI (NCI-H23 lung): 66 µM
TGI (786-0 renal): 70.9 µM
TGI (DU-145 prostate): 39.6 µM
TGI (SK-MEL-2 melanoma): 64 µM
TGI (UO-31 renal): 31.1 µM
TGI (HT29 colon): > 100 µM
TGI (LOX IMVI melanoma): 32.7 µM
TGI (PC-3 prostate): 50.4 µM
TGI (A549 NSCLC): > 100 µM
TGI (MOLT-4 leukemia): > 100 µM
TGI (RPMI-8226 leukemia): > 100 µM
TGI (MDA-MB-231 breast): 35.5 µM
TGI (OVCAR-3 ovarian): 37.8 µM
TGI (M14 melanoma): 52.3 µM
TGI (SK-MEL-28 melanoma): 52 µM
TGI (HCT-116 colon): 43.2 µM
TGI (MCF7 breast): 37.6 µM
TGI (IGROV1 ovarian): 37.9 µM
TGI (SK-MEL-5 melanoma): > 100 µM
TGI (SN12C renal): > 100 µM
TGI (MALME-3M melanoma): 28 µM

S=C(NC/C(Br)=C/Br)Nc1cccc2ccccc12
TGI (TK-10 renal): > 100 µM
TGI (T-47D breast): > 100 µM
TGI (NCI-H226 lung): > 100 µM
TGI (BT-549 breast): 84.6 µM
TGI (CCRF-CEM leukemia): 66.2 µM
TGI (OVCAR-4 ovarian): > 100 µM
TGI (HOP-62 NSCLC): 94 µM
TGI (A498 renal): 90.4 µM
TGI (ACHN renal): 86.6 µM
TGI (OVCAR-8 ovarian): > 100 µM
TGI (SF-539 CNS): 69.1 µM
TGI (HL-60(TB) leukemia): 37.3 µM
TGI (K-562 leukemia): 31 µM
TGI (MDA-MB-435): > 100 µM
TGI (UACC-62 melanoma): 67.7 µM
TGI (SNB-19 CNS): > 100 µM
TGI (OVCAR-5 ovarian): > 100 µM
TGI (COLO 205 colon): 32.7 µM
TGI (MDA-N): 72.7 µM
TGI (CAKI-1 renal): > 100 µM
TGI (U251 CNS): > 100 µM
TGI (SNB-75 CNS): > 100 µM
TGI (UACC-257 melanoma): > 100 µM
TGI (HCT-15 colon): > 100 µM
TGI (EKVX NSCLC): > 100 µM
TGI (HS 578T breast): > 100 µM
TGI (RXF 393 renal): > 100 µM
TGI (NCI-H522 lung): 74.6 µM
TGI (SF-295 CNS): > 100 µM
TGI (SK-OV-3 ovarian): > 100 µM
TGI (HOP-92 NSCLC): 55.9 µM
TGI (NCI/ADR-RES ovarian): 50.9 µM
TGI (SR leukemia): > 100 µM
TGI (NCI-H23 lung): 74.5 µM
TGI (786-0 renal): > 100 µM
TGI (DU-145 prostate): > 100 µM
TGI (SK-MEL-2 melanoma): 48.5 µM
TGI (UO-31 renal): 55.2 µM
TGI (HT29 colon): > 100 µM
TGI (LOX IMVI melanoma): > 100 µM
TGI (PC-3 prostate): 71.7 µM
TGI (A549 NSCLC): > 100 µM
TGI (MOLT-4 leukemia): 46.8 µM
TGI (RPMI-8226 leukemia): 44.7 µM
TGI (MDA-MB-231 breast): 51.3 µM
TGI (OVCAR-3 ovarian): 71.8 µM
TGI (M14 melanoma): 43.7 µM
TGI (HCT-116 colon): 61.9 µM
TGI (MCF7 breast): 44.4 µM
TGI (IGROV1 ovarian): > 100 µM
TGI (SK-MEL-5 melanoma): 34.3 µM
TGI (SN12C renal): 53.1 µM
TGI (MALME-3M melanoma): 78.8 µM

COc1ccc(C(=O)N/N=C2\C(=O)c3c(C)cc(C)cc3CC2(C)C)cc1
TGI (TK-10 renal): > 100 µM
TGI (T-47D breast): 40.4 µM
TGI (NCI-H226 lung): 45.7 µM
TGI (BT-549 breast): 36.2 µM
TGI (CCRF-CEM leukemia): 65.6 µM
TGI (OVCAR-4 ovarian): > 100 µM
TGI (HOP-62 NSCLC): 37.4 µM
TGI (A498 renal): 42.4 µM
TGI (ACHN renal): 58.7 µM
TGI (OVCAR-8 ovarian): 56.6 µM
TGI (SF-539 CNS): 46 µM
TGI (HL-60(TB) leukemia): 51.5 µM
TGI (K-562 leukemia): 64.7 µM
TGI (MDA-MB-435): 35.1 µM
TGI (UACC-62 melanoma): 31.6 µM
TGI (SNB-19 CNS): 84 µM
TGI (OVCAR-5 ovarian): 55.5 µM
TGI (COLO 205 colon): 49.3 µM
TGI (NCI-H460 lung): 78.4 µM
TGI (MDA-N): 39.3 µM
TGI (CAKI-1 renal): > 100 µM
TGI (U251 CNS): 31.9 µM
TGI (SW-620 colon): 84.2 µM
TGI (SNB-75 CNS): 56.5 µM
TGI (UACC-257 melanoma): 98.5 µM
TGI (HCT-15 colon): 64.3 µM
TGI (EKVX NSCLC): 70.1 µM
TGI (HS 578T breast): 41.9 µM
TGI (RXF 393 renal): 32.6 µM
TGI (KM12 colon): 39.9 µM
TGI (NCI-H522 lung): 33.6 µM
TGI (SF-295 CNS): 40.1 µM
TGI (SK-OV-3 ovarian): > 100 µM
TGI (HOP-92 NSCLC): 31.3 µM
TGI (NCI/ADR-RES ovarian): 80.6 µM
TGI (SR leukemia): 47.9 µM
TGI (SF-268 CNS): 42.9 µM
TGI (NCI-H23 lung): > 100 µM
TGI (786-0 renal): 36.1 µM
TGI (DU-145 prostate): 63.8 µM
TGI (SK-MEL-2 melanoma): 36.2 µM
TGI (HT29 colon): 36.9 µM
TGI (LOX IMVI melanoma): 34.2 µM
TGI (PC-3 prostate): 47.7 µM
TGI (A549 NSCLC): 44.2 µM
TGI (MOLT-4 leukemia): 37.3 µM
TGI (RPMI-8226 leukemia): 57.5 µM
TGI (MDA-MB-231 breast): 56.1 µM
TGI (OVCAR-3 ovarian): 30.9 µM
TGI (M14 melanoma): 38.8 µM
TGI (SK-MEL-28 melanoma): 42.2 µM
TGI (HCT-116 colon): 32.1 µM
TGI (MCF7 breast): 36.4 µM
TGI (IGROV1 ovarian): 41.5 µM
TGI (SK-MEL-5 melanoma): 31.9 µM
TGI (SN12C renal): 37.2 µM
TGI (MALME-3M melanoma): 31.6 µM
